From US8986733B2, “Materials and methods for nerve repair” (University of Florida Research Foundation, Inc., priority 2001, dated 2015)

Key:
[1] = system: embryonic chick DRG neurons; assay: Cryoculture bioassay on sections of acellular rat nerve segments; format: cell-based
Protocol: Cryoculture bioassay. Cryoculture is a neurite outgrowth assay in which neurons are cultured directly on fresh/frozen nerve sections and was performed as described previously (Ferguson T A et al. [2000] Mol Cell Neurosci, 16:157-167). Briefly, chondroitinase- and vehicle-treated nerve segments were sectioned at 20 μm, mounted on sterile, aminopropyltriethoxysilane (APTS)-coated coverslips and stored at −20° C. until used. Where indicated, sections were treated with chondroitinase ABC (0.1 unit/ml) or vehicle (50 mM Tris-HCl, pH 8.0), containing 50 mM NaCl) for 2 h at 37° C. Purified dorsal root ganglionic (DRG) neurons from day 8 chick embryos were seeded directly on the nerve sections in a defined N2 medium (Bottenstein J E et al. [1980] Exp Cell Res 125:183-190) containing 10 ng/ml nerve growth factor. […] Neurite lengths were measured directly using IMAGE-PRO PLUS software (MEDIA CYBERNETICS, Silver Springs, Md.). At least 250 neurons with neurites greater than one cell body (˜15 μm) were scored for each condition in each experiment.
Inactivation of inhibitory CSPG in chondroitinase-treated acellular nerve was determined by cryoculture bioassay. Embryonic chick DRG neurons were seeded onto sections of prepared nerve segments and the neurite-promoting activity was assessed by scoring neurite growth. […]

CSPG = CSPG neoepitope (Ab1918) immunolabeling of acellular rat sciatic nerve segments treated en bloc; format: biochemical; details: en bloc treatment 16 h
Text: Preparation of acellular nerve grafts treated with chondroitinase. Adult (180-200 g) female SPRAGUE DAWLEY rats (HARLAN, Indianapolis, Ind.) were used as nerve donors and recipient hosts. Donor rats were anesthetized with halothane and decapitated. Sciatic nerves were exposed through a gluteal muscle-splitting incision and isolated free of underlying fascia. A 15-mm nerve segment was excised rostral to the bifurcation into common peroneal and tibial nerves. The segments were rinsed with cold sterile Ringer's solution, stabilized by pinning the ends to a thin plastic support, and transferred to a cryogenic vial. The vials were submerged in liquid nitrogen for 2 minutes and then transferred to a 37° C. water bath for 2 minutes. This freeze/thaw cycle was repeated, yielding acellular nerve grafts that were then stored in liquid nitrogen. On the day before grafting, the nerve grafts were warmed to room temperature and incubated in 100 μl phosphate buffered saline pH 7.4 (PBS) containing 2 units/ml chondroitinase ABC (SIGMA, St. Louis, Mo.) or in PBS (vehicle) only for 16 hours at 37° C. The grafts were rinsed twice with Ringer's and kept on ice prior to use. […]
Immunocytochemistry. Axonal regeneration was assessed by GAP-43 immunofluorescence and digital image analysis. […]

chondroitinase ABC
effect of post-treatment on neurite-promoting activity ([1]; sections from en bloc chondroitinase-treated nerve grafts): only a slight additive effect
increase in neurite-promoting activity by post-treatment of sections ([1]; sections of acellular nerve treated en bloc with vehicle only, post-treated after sectioning): 86%
CSPG degradation (Ab1918 neoepitope immunostaining) (CSPG): thoroughly degraded CSPG side-chains
